Data as given in patent publication US6452009B1, “4-unsubstituted dihydroisoquinolinone derivatives and combinatorial libraries thereof” (Lion Bioscience AG, priority 1999, dated 2002).

Tested on: Streptococcus pyogenes (ATCC #97-03 14289)
Assay: Anti-microbial screen (growth inhibition, OD 570 nm)
Type: cell-based
Conditions: ATCC97, compounds assayed at 170 μg/ml, growth in Todd Hewitt Broth read at 570 nm at 4 hrs, read-out: % Inhibition
Description: Streptococcus pyogenes (ATCC #97-03 14289) are grown in Todd Hewitt Broth (THB) (Difco Laboratories #0492-17-6) overnight until they reach an optical density of (OD=0.636@570 nm) by reading 0.1 ml in a 96 well microtiter plate in a Molecular Devices Thermomax. This preparation is kept frozen as stocks in 30% v/v glycerol in 1.5 ml aliquots at −70° C. until use. Prior to screening, 1.5 ml aliquots are thawed and diluted into 50 ml THB. 200 μl of this dilution is added to 92 wells of microtiter plate. To three wells THB (200 μl) is added to serve as a blank and a sterility control. Test compounds in DMSO and appropriate concentrations of DMSO are added to Growth/Solvent Controls at 0 time. Plates are read at 0 time at 570 nm in the Molecular Devices plate reader to obtain compounds correction factors for insoluble or colored compounds. Plates are read again at 4 hrs.
Compounds are assayed at a concentration of 170 μg/ml. Percent inhibition for each compound is calculated using the following formulae:
Color correct=(O.D. 0 hr −Blank 0 hr)—(Solvent Control 0 hr−Blank 0 hr)
% Inhibition=100−(O.D. test compound 4 hr−Blank 4 hr−color correct) divided by (O.D. growth/solvent control 4 hr−Blank 4 hr)

Structure (SMILES) | inhibition at 170 µg/mL
CCCCCCCC(=O)Nc1ccc2c(c1)C(=O)N(CCC(=O)N(CCC)CC(N)=O)C(c1ccc(OCCCN(C)C)cc1)C2 (stereo not shown) | 98.8%
CN(C)CCN(CC(N)=O)C(=O)c1ccc(CN2C(=O)c3cc(NC(=O)c4ccc(OC(F)(F)F)cc4)ccc3CC2c2cccc(C#N)c2)cc1 (stereo not shown) | 99.5%
CN(C)CCN(CC(N)=O)C(=O)CCN1C(=O)c2cc(NC(=O)COc3ccc4ccccc4c3)ccc2CC1c1ccc(F)c(F)c1 (stereo not shown) | 99.2%
NC(=O)CN(Cc1cccc(C(F)(F)F)c1)C(=O)CCN1C(=O)c2cc(NC(=O)CCC3CCCC3)ccc2CC1c1cccc(Oc2ccc(Cl)c(Cl)c2)c1 (stereo not shown) | 98.7%
CC1CCC(C(=O)Nc2ccc3c(c2)C(=O)N(Cc2ccc(C(=O)N(CCN(C)C)CC(N)=O)cc2)C(c2cccc(C#N)c2)C3)CC1 (stereo not shown) | 98.5%
CN(C)CCN(CC(N)=O)C(=O)CCN1C(=O)c2cc(NC(=O)c3cccc(C(F)(F)F)c3F)ccc2CC1c1ccc(C(F)(F)F)cc1 (stereo not shown) | 99.9%
CN(C)CCCOc1ccc(C2Cc3ccc(NC(=O)CC4CCCC4)cc3C(=O)N2Cc2ccc(C(=O)N(CC(N)=O)Cc3ccccc3)cc2)cc1 (stereo not shown) | 99.2%
Cc1ccc2oc(C(=O)Nc3ccc4c(c3)C(=O)N(CCC(=O)N(CC(N)=O)Cc3cccc(C(F)(F)F)c3)C(c3ccc(F)c(F)c3)C4)cc(=O)c2c1 (stereo not shown) | 99.2%
CN(C)CCN(CC(N)=O)C(=O)c1ccc(CN2C(=O)c3cc(NC(=O)c4cccc(C(F)(F)F)c4F)ccc3CC2c2cccc(C#N)c2)cc1 (stereo not shown) | 99.5%
NC(=O)CN(C(=O)CCN1C(=O)c2cc(NC(=O)/C=C/c3ccccc3C(F)(F)F)ccc2CC1c1cccc(Oc2ccc(Cl)c(Cl)c2)c1)C1CC1 (stereo not shown) | 98.5%
CN(C)CCN(CC(N)=O)C(=O)c1ccc(CN2C(=O)c3cc(NC(=O)CCC4CCCCC4)ccc3CC2c2ccc(C(F)(F)F)cc2)cc1 (stereo not shown) | 99.6%
CSc1ccc(C2Cc3ccc(NC(=O)CC(C)CC(C)(C)C)cc3C(=O)N2Cc2ccc(C(=O)N(CCN(C)C)CC(N)=O)cc2)cc1 (stereo not shown) | 99.5%
CN(C)CCN(CC(N)=O)C(=O)CCN1C(=O)c2cc(NC(=O)CC3CC4CCC3C4)ccc2CC1c1ccc(C(F)(F)F)cc1 (stereo not shown) | 99.2%
CN(C)CCN(CC(N)=O)C(=O)c1ccc(CN2C(=O)c3cc(NC(=O)/C=C/c4ccccc4C(F)(F)F)ccc3CC2c2ccc(C(C)(C)C)cc2)cc1 (stereo not shown) | 98.5%
CN(C)CCCOc1ccc(C2Cc3ccc(NC(=O)COc4ccc5ccccc5c4)cc3C(=O)N2Cc2ccc(C(=O)N(CCN(C)C)CC(N)=O)cc2)cc1 (stereo not shown) | 98.6%
Cc1nnsc1C(=O)Nc1ccc2c(c1)C(=O)N(CCC(=O)N(CCN(C)C)CC(N)=O)C(c1cccc3ccccc13)C2 (stereo not shown) | 99%
CC(CC(=O)Nc1ccc2c(c1)C(=O)N(Cc1ccc(C(=O)N(CC(N)=O)Cc3cccc(C(F)(F)F)c3)cc1)C(c1ccc(F)c(F)c1)C2)CC(C)(C)C (stereo not shown) | 99.3%
CN(C)CCN(CC(N)=O)C(=O)CCN1C(=O)c2cc(NC(=O)c3cccc(C(F)(F)F)c3F)ccc2CC1c1ccccc1 (stereo not shown) | 99.2%
CN(C)CCN(CC(N)=O)C(=O)CCN1C(=O)c2cc(NC(=O)c3cc(C(F)(F)F)cc(C(F)(F)F)c3)ccc2CC1c1ccc(F)c(F)c1 (stereo not shown) | 99.2%
CN(C)CCCOc1ccc(C2Cc3ccc(NC(=O)CC4CC5CCC4C5)cc3C(=O)N2Cc2ccc(C(=O)N(CC(N)=O)Cc3ccccc3)cc2)cc1 (stereo not shown) | 98.2%
CCCCCC/C=C/C(=O)Nc1ccc2c(c1)C(=O)N(Cc1ccc(C(=O)N(CCOC)CC(N)=O)cc1)C(c1ccc(C(C)(C)C)cc1)C2 (stereo not shown) | 98.2%
Cc1ccc(C2Cc3ccc(NC(=O)c4ccc(F)c(F)c4)cc3C(=O)N2Cc2ccc(C(=O)N(CCN(C)C)CC(N)=O)cc2)cc1 (stereo not shown) | 98.5%
CCCCCC(=O)Nc1ccc2c(c1)C(=O)N(CCC(=O)N(CC(N)=O)Cc1cccc(C(F)(F)F)c1)C(c1ccc(C(C)(C)C)cc1)C2 (stereo not shown) | 99.4%
C=CCN(CC(N)=O)C(=O)CCN1C(=O)c2cc(NC(=O)C(=O)c3c(C)cc(C)cc3C)ccc2CC1c1ccc(OCCCN(C)C)cc1 (stereo not shown) | 98.7%
CN(C)CCN(CC(N)=O)C(=O)c1ccc(CN2C(=O)c3cc(NC(=O)CC4CC5CCC4C5)ccc3CC2c2cccc3ccccc23)cc1 (stereo not shown) | 99.5%
CC(CC(=O)Nc1ccc2c(c1)C(=O)N(CCC(=O)N(CC(N)=O)C1CC1)C(c1ccc(F)c(F)c1)C2)CC(C)(C)C (stereo not shown) | 99.7%

Structure (SMILES) | inhibition at 170 µg/mL
CN(C)CCCOc1ccc(C2Cc3ccc(NC(=O)c4ccc(I)cc4)cc3C(=O)N2CCC(=O)N(CC(N)=O)Cc2cccc(C(F)(F)F)c2)cc1 (stereo not shown) | 98.8%
CN(C)CCN(CC(N)=O)C(=O)CCN1C(=O)c2cc(NC(=O)c3ccc(F)c(F)c3)ccc2CC1c1ccc(C(C)(C)C)cc1 (stereo not shown) | 98.7%
CC1CCC(C(=O)Nc2ccc3c(c2)C(=O)N(CCC(=O)N(CCN(C)C)CC(N)=O)C(c2ccc(OCCCN(C)C)cc2)C3)CC1 (stereo not shown) | 99%
CN(C)CCN(CC(N)=O)C(=O)CCN1C(=O)c2cc(NC(=O)CC3CC4CCC3C4)ccc2CC1c1ccc2ccccc2n1 (stereo not shown) | 98.5%
CN(C)CCN(CC(N)=O)C(=O)CCN1C(=O)c2cc(NC(=O)c3ccc(I)cc3)ccc2CC1c1ccccn1 (stereo not shown) | 99.2%
CCCC(CCC)C(=O)Nc1ccc2c(c1)C(=O)N(Cc1ccc(C(=O)N(CC(N)=O)Cc3ccccc3)cc1)C(c1ccc(OCCCN(C)C)cc1)C2 (stereo not shown) | 99.5%
COc1cc(OC)cc(C2Cc3ccc(NC(=O)C4CCC(C)CC4)cc3C(=O)N2CCC(=O)N(CCN(C)C)CC(N)=O)c1 (stereo not shown) | 99.8%
COc1cc(OC)cc(C2Cc3ccc(NC(=O)c4ccc(OC(F)(F)F)cc4)cc3C(=O)N2CCC(=O)N(CCN(C)C)CC(N)=O)c1 (stereo not shown) | 99.5%
CN(C)CCN(CC(N)=O)C(=O)CCN1C(=O)c2cc(NC(=O)CC3CC4CCC3C4)ccc2CC1c1ccc(F)c(F)c1 (stereo not shown) | 98.4%
CN(C)CCN(CC(N)=O)C(=O)CCN1C(=O)c2cc(NC(=O)CCC3CCCC3)ccc2CC1c1cccc2ccccc12 (stereo not shown) | 99.8%
CN(C)CCN(CC(N)=O)C(=O)CCN1C(=O)c2cc(NC(=O)c3cc(C(F)(F)F)cc(C(F)(F)F)c3)ccc2CC1c1ccc2ccccc2n1 (stereo not shown) | 98.2%
Cc1ccc(C2Cc3ccc(NC(=O)c4cccnc4Cl)cc3C(=O)N2Cc2ccc(C(=O)N(CCN(C)C)CC(N)=O)cc2)cc1 (stereo not shown) | 98.8%
CN(C)CCN(CC(N)=O)C(=O)CCN1C(=O)c2cc(NC(=O)c3ccccc3F)ccc2CC1c1ccc(C(C)(C)C)cc1 (stereo not shown) | 98.2%
CN(C)CCN(CC(N)=O)C(=O)c1ccc(CN2C(=O)c3cc(NC(=O)CCC4CCCC4)ccc3CC2c2ccc(F)c(F)c2)cc1 (stereo not shown) | 99.9%
CN(C)CCN(CC(N)=O)C(=O)c1ccc(CN2C(=O)c3cc(NC(=O)c4ccc(OC(F)(F)F)cc4)ccc3CC2c2ccccn2)cc1 (stereo not shown) | 99.5%
CCCCCC/C=C/C(=O)Nc1ccc2c(c1)C(=O)N(CCC(=O)N(CCN(C)C)CC(N)=O)C(c1ccc(SC)cc1)C2 (stereo not shown) | 99.9%
COc1ccc(Br)c(C(=O)Nc2ccc3c(c2)C(=O)N(Cc2ccc(C(=O)N(CCN(C)C)CC(N)=O)cc2)C(c2ccc(F)c(F)c2)C3)c1 (stereo not shown) | 99.5%
CN(C)CCN(CC(N)=O)C(=O)CCN1C(=O)c2cc(NC(=O)c3ccco3)ccc2CC1c1cccc2ccccc12 (stereo not shown) | 98.2%
CN(C)CCN(CC(N)=O)C(=O)c1ccc(CN2C(=O)c3cc(NC(=O)c4c(F)cccc4F)ccc3CC2c2ccc(C(C)(C)C)cc2)cc1 (stereo not shown) | 99%
CN(C)CCCOc1ccc(C2Cc3ccc(NC(=O)COc4ccc5ccccc5c4)cc3C(=O)N2CCC(=O)N(CC(N)=O)Cc2cccc(C(F)(F)F)c2)cc1 (stereo not shown) | 99.6%
CN(C)CCN(CC(N)=O)C(=O)c1ccc(CN2C(=O)c3cc(NC(=O)c4ccc(I)cc4)ccc3CC2c2cccnc2)cc1 (stereo not shown) | 98.8%
CN(C)CCCOc1ccc(C2Cc3ccc(NC(=O)CCC4CCCCC4)cc3C(=O)N2CCC(=O)N(CCN(C)C)CC(N)=O)cc1 (stereo not shown) | 99%
CN(C)CCN(CC(N)=O)C(=O)c1ccc(CN2C(=O)c3cc(NC(=O)CC4CC5CCC4C5)ccc3CC2c2ccc(C(F)(F)F)cc2)cc1 (stereo not shown) | 98.1%
COc1cc(OC)cc(C2Cc3ccc(NC(=O)C(=O)c4c(C)cc(C)cc4C)cc3C(=O)N2CCC(=O)N(CCN(C)C)CC(N)=O)c1 (stereo not shown) | 99.5%
Cc1cc(C)c(C(=O)C(=O)Nc2ccc3c(c2)C(=O)N(CCC(=O)N(CCN(C)C)CC(N)=O)C(c2ccc(C(F)(F)F)cc2)C3)c(C)c1 (stereo not shown) | 98.9%
CCCCCC/C=C/C(=O)Nc1ccc2c(c1)C(=O)N(CCC(=O)N(CCN(C)C)CC(N)=O)C(c1ncc[nH]1)C2 (stereo not shown) | 99.4%
